This note sets out measurements from patent EP4644396A1 (Visionpharma (Nantong) Co., Ltd, priority 2022, dated 2024).

One assay has as its target T1, human TLR8 (Homo sapiens, UniProt Q9NR97).
T1 construct: expressed in transfected cells
T1 sequence (Q9NR97 27-1041): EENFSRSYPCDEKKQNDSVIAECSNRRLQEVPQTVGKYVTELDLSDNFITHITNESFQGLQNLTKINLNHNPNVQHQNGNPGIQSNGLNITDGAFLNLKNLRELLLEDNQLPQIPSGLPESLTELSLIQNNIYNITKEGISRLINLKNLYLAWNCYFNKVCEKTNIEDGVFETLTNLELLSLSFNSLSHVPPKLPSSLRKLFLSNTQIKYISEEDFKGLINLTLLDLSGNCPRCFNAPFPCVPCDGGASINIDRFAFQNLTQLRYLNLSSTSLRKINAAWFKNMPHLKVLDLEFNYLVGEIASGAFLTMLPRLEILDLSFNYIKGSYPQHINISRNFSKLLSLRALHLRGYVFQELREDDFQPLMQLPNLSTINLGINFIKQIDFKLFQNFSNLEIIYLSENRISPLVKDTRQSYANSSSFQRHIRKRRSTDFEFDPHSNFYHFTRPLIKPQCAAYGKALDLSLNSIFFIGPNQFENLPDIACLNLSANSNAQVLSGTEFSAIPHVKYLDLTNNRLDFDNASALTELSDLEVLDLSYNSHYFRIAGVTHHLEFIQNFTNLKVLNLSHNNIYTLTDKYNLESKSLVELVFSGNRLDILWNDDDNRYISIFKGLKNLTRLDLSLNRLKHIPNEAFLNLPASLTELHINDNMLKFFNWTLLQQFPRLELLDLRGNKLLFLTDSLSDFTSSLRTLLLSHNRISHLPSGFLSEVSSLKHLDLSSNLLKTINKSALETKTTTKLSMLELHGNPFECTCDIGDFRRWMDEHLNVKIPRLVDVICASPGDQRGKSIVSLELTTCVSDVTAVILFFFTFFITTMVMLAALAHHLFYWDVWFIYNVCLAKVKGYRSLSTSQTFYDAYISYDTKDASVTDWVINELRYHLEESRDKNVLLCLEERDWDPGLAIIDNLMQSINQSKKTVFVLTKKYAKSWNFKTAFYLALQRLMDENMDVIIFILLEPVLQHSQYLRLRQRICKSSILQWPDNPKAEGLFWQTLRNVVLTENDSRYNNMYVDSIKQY
Description: HEK-Blue hTLR8 SEAP reporter gene inhibition assay. It counts as cell-based. The method, boiled down: (§1)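 HEK-Blue cells stably expressing human TLR7 (80,000/well) or TLR8 (60,000/well) with NF-κB/AP-1–driven SEAP reporter; compounds 0.001–36 µM preincubated 15 min, then 10 µM ligand (Gardiquimod for TLR7) added for 20 h. SEAP measured by Quanti-Blue; IC50 calculated.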

The next assay concerns the target T2, human TLR7 (Homo sapiens, UniProt Q9NYK1).
T2 sequence (Q9NYK1 27-1049): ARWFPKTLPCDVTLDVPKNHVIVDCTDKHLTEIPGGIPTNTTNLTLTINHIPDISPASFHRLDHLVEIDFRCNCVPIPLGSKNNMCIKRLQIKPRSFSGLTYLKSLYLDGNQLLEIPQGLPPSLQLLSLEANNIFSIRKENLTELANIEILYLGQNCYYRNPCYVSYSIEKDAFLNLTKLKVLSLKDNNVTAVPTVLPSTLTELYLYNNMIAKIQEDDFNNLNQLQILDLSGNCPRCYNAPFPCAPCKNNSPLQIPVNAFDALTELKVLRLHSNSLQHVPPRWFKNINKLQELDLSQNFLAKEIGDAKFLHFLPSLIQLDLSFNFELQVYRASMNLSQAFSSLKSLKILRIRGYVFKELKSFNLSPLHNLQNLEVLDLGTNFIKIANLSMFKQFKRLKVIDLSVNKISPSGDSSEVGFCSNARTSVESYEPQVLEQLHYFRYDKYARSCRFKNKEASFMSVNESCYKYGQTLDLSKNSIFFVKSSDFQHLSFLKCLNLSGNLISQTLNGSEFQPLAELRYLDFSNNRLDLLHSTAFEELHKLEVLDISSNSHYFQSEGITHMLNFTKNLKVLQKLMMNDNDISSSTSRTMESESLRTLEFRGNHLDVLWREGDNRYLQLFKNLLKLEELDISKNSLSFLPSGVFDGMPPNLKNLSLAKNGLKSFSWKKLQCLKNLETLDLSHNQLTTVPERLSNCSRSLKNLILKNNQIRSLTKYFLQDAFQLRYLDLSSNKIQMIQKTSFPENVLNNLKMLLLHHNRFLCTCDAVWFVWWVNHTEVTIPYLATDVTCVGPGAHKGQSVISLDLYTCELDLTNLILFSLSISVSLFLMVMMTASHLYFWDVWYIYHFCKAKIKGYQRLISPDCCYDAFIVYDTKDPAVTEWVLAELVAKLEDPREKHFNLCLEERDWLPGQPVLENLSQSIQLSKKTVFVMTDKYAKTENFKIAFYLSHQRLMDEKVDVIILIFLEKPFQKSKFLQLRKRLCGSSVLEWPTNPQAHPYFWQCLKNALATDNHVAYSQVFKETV
Nature of the assay: HEK-Blue hTLR7 SEAP reporter gene inhibition assay. Type of assay: cell-based. The method, boiled down: as §1
On the technique in general: In a reporter assay the amount or activity of a reporter protein is the signal.

Where [1] appears, read: hTLR8 HEK-Blue cells, TLR8 ligand 10 µM, 20 hours, SEAP by Quanti-blue, class symbols, read-out: HEK-Blue hTLR8 IC50.
Setting [2] is: hTLR7 HEK-Blue cells, TLR7 ligand Gardiquimod 10 µM, 20 hours, SEAP by Quanti-blue, class symbols, read-out: HEK-Blue hTLR7 IC50.

Like-named read-outs stand apart in the source and are kept apart here.

With `C[C@@H]1Cc2c(nn3c2CN(c2ccc(C#N)n4ncc(F)c24)C[C@H]3C)[C@H](C)N1` [Example I-59, 3-Fluoro-4-((4R,7S,9R)-4,7,9-trimethyl-3,4,7,8,9,10-hexahydropyrido[3',4':3,4]pyrazolo[1,5-a]pyrazin-2(1H)-yl)pyrazolo[1,5-a]pyridine-7-carbonitrile], the 50% inhibitory concentration (IC50) (commonly the point on the concentration scale where inhibition reaches its midpoint) on human TLR8 (setting [1]) was over 0.1 µM; at human TLR7 (setting [2]), under 0.05 µM.
The corresponding values for `CC(C)C1Cc2c(nn3c2CN(c2ccc(C#N)n4ncc(F)c24)C[C@H]3C)CN1` (stereo partly drawn) [Example I-60, 3-Fluoro-4-((4R)-9-isopropyl-4-methyl-3,4,7,8,9,10-hexahydropyrido[3',4':3,4]pyrazolo[1,5-a]pyrazin-2(1H)-yl)pyrazolo[1,5-a]pyridine-7-carbonitrile] are over 0.1 µM and under 0.05 µM.
Regarding `C[C@@H]1CN(c2ccc(C#N)n3ncc(F)c23)Cc2c3c(nn21)CNC(CCOC(C)(C)C)C3` (stereo partly drawn) [Example I-61, 4-((4R)-9-(2-(tert-butoxy)ethyl)-4-methyl-3,4,7,8,9,10-hexahydropyridine[3',4':3,4]pyrazole[1,5-a]pyrazine-2(1H)-yl)-3-fluoropyrazole[1,5-a]pyridine-7-caronitrile], the half-maximal inhibitory concentration (IC50) is over 0.1 µM on human TLR8 (HEK-Blue hTLR8 IC50 (µM)) and under 0.05 µM against human TLR7 (HEK-Blue hTLR7 IC50 (µM)).
With `C[C@@H]1CN(c2ccc(C#N)n3ncc(F)c23)Cc2c3c(nn21)CNC(c1ccn[nH]1)C3` (stereo partly drawn) [Example I-68, 3-Fluoro-4-((4R)-4-methyl-9-(1H-pyrazol-5-yl)-3,4,7,8,9,10-hexahydropyrido[3',4':3,4]pyrazolo[1,5-a]pyrazin-2(1H)-yl)pyrazolo[1,5-a]pyridine-7-carbonitrile], the results for the concentration for half-maximal inhibition (IC50) on human TLR8 (setting [1]) and on human TLR7 (setting [2]) were under 0.1 µM and over 0.05 µM, respectively.
For the compound `C[C@@H]1CN(c2ccc(C#N)n3ncc(F)c23)Cc2c3c(nn21)CNC(C(C)(C)O)C3` (stereo partly drawn) [Example I-74, 3-Fluoro-4-((4R)-9-(2-hydroxypropan-2-yl)-4-methyl-3,4,7,8,9,10-hexahydropyrido [3',4':3,4]pyrazolo[1,5-a]pyrazin-2(1H)-yl)pyrazolo[1,5-a]pyridine-7-carbonitrile], the IC50 is over 0.1 µM on human TLR8 (setting [1]) and over 0.05 µM on human TLR7 (setting [2]).
The corresponding values for `C[C@H]1CN(c2ccc(C#N)n3ncc(F)c23)Cc2c3c(nn21)CNCC3` [Example I-76, (S)-3-Fluoro-4-(4-methyl-3,4,7,8,9,10-hexahydropyrido[3',4':3,4]pyrazolo[1,5-a]pyrazin-2(1H)-yl)pyrazolo[1,5-a]pyridine-7-carbonitrile] are over 0.1 µM and over 0.05 µM.
With `C[C@@H]1CN(c2ccc(C#N)n3ncc(F)c23)Cc2c3c(nn21)CN[C@@H](CO)C3` [Example I-77, 3-Fluoro-4-((4R,9R)-9-(hydroxymethyl)-4-methyl-3,4,7,8,9,10-hexahydropyrido [3',4':3,4]pyrazolo[1,5-a]pyrazin-2(1H)-yl)pyrazolo[1,5-a]pyridine-7-carbonitrile], the IC50 at human TLR8 (setting [1]) was under 0.1 µM; on human TLR7 (setting [2]), over 0.05 µM.
Regarding `C[C@@H]1CN(c2ccc(C#N)n3ncc(F)c23)Cc2c3c(nn21)CNC(Cc1ccn[nH]1)C3` (stereo partly drawn) [Example I-79, 4-((4R)-9-((1H-pyrazol-5-yl)methyl)-4-methyl-3,4,7,8,9,10-hexahydropyrido[3',4':3,4]pyrazolo[1,5-a]pyrazin-2(1H)-yl)-3-fluoropyrazolo[1,5-a]pyridine-7-carbonitrile], the IC50 on human TLR8 (setting [1]) is under 0.1 µM; on human TLR7 (setting [2]), under 0.05 µM.
The corresponding values for `COC[C@H]1Cc2c(nn3c2CN(c2ccc(C#N)n4ncc(F)c24)C[C@H]3C)CN1` [Example I-82, 3-Fluoro-4-((4R,9R)-9-(methoxymethyl)-4-methyl-3,4,7,8,9,10-hexahydropyrido [3',4':3,4]pyrazolo[1,5-a]pyrazin-2(1H)-yl)pyrazolo[1,5-a]pyridine-7-carbonitrile] are over 0.1 µM and under 0.05 µM.
